According to a melting point compilation (Tetko et al.; mined from patent text by program, amines drawn as free bases though some values may be those of a salt):

| melting point [°C] | SMILES |
| --- | --- |
| 167 to 169 | CCS(=O)(=O)CCC(=O)NNC(=O)N1Cc2ccccc2Oc2ccc(C)cc21 |
| 202 to 205 | CC(=O)NC[C@H]1CN(c2ccc(C(=O)c3ccc[nH]3)cc2)C(=O)O1 |
| 62 to 64 | C=CS(=O)(=O)C=CSc1ccc(C(C)(C)C)cc1 |
| 162 to 163 | CCCCCC(CC(=O)Nc1cc(C(N)=O)ccc1CCCC)c1ccc(C(O)C(C)C)cc1OC (stereo not drawn) |
| 195 to 196 | CCn1ncc2c(-c3cncc(C)c3)c(/C=C/C(=O)O)c(COC)nc21 |
| 95 | Cc1cccc(-c2[nH]c(C(C)C)nc2-c2ccc(F)c(-c3ccc(OCCN4CCCC4=O)cc3)c2)n1 |
| 107 to 117 | Cc1cccc(-c2[nH]c(C(C)C)nc2-c2cccc(-c3ccc(N)cc3)c2)n1 |
| 149 to 150 | CCn1nc(Cc2ccc(NC(=O)/C=C/c3cnn(C)c3-c3ccc(F)cc3)cc2)oc1=O |
| 124 to 127 | O=C(CC1CCCCCC1=O)c1ccc(Br)cc1 (stereo not drawn) |
| 127 | O=C(C[C@@H](CCCC1CCCCC1)c1nc(CNC2CCCCC2)no1)NO |
| 122 to 123 | CN1C(C(=O)OCCO)=C(O)c2ccccc2S1(=O)=O |
| 86 to 88 | CCOC(=O)CS(=O)(=O)Nc1ccccc1CC(=O)OC |
| 208 to 209 | Nc1ncc(-c2cccc(Nc3ccc(-c4ccoc4)cc3N)c2)cn1 |

More lines, now with the values behind:

| SMILES | melting point [°C] |
| --- | --- |
| CC(C#N)=C1CCN(c2ccc(N3C[C@H](CNC(=O)C(F)F)OC3=O)cc2F)CC1 | 172 to 174 |
| Oc1ccc(-c2c3ccccc3cc3sc4ccccc4c23)cc1I | 125 to 128 |
| CCOc1c(OC)cc(N)c2ncccc12 | 129 to 131 |
| C=CCCNCc1nnc2n1-c1ccc(Cl)cc1C(c1ccccc1)=NC2 | 157 to 160 |
| CN1Cc2c(-c3noc(CCl)n3)ncn2-c2ccc(F)c(Cl)c2C1=O | 215 to 218 |
| O=C(Oc1ccc([N+](=O)[O-])cc1)OC1CCN(C(=O)OCc2ccccc2)CC1 | 118 to 120 |
| O=c1[nH]ccn1-c1ccc(OCC(F)(F)C(F)F)cc1 | 157 to 159 |
| CCOC(=O)COc1ccc([N+](=O)[O-])cc1OC | 87 to 88 |
| Cn1cnc(COc2nn3c(-c4ccc(F)cc4F)nnc3cc2C2(C)CCCCC2)n1 | 156 |
| O=C(NC[C@@H]1CN2C(=O)C[C@H]2O1)c1ccccc1 (racemic) | 115 to 116 |
| O=c1[nH]c2c(c(=O)[nH]1)N=CCN2CCCCN1CCC(OC(c2ccccc2)c2ccccc2)CC1 | 157 to 159 |
| CCCc1nc(OC)c(N(C)C(=O)N2CCN(c3cc(OC)cc(OC)c3)CC2)cc1C | 106 to 107 |
| CCCCNC1CC(C)(C)N(c2nc(N3CCOCC3)nc(N3CCOCC3)n2)C(C)(C)C1 | 82 to 87 |
| Cc1ccnc(NCCSCc2nc[nH]c2C)c1C(=O)O | 143 |
| CCCCCCCCCCCCCCCCSCC(CN)NC(=O)OC (stereo not drawn) | 49 to 50.5 |
| CCCCNC1=NS(=O)(=O)c2sc(Cl)cc2N1 | 218 to 219 |
| CCCCOC1(c2nc(-c3ccc(F)cc3)c(-c3ccncc3)[nH]2)CCN(C)CC1 | 177 |
| CC1COCc2nc3c(N)nc4cc(O)ccc4c3n21 (stereo not drawn) | > 250 |
| CN1CCN(c2nc(Oc3ccccc3)c3ccccc3n2)CC1 | 102 to 103 |
| Cc1ccc(-c2nnc(N3CCC4(CC3)OCCO4)nc2-c2ccc(C)cc2)cc1 | 169 to 170 |
| COc1cc(Nc2nccc(-c3ccc(C#N)cc3)n2)cc(OC)c1OC | 183 |
| Cc1c(-c2ccc(O)cc2)n(Cc2ccc(OCCN3CCC(C)CC3)cc2)c2ccc(O)cc12 | 154 to 162 |
| COc1cc(Nc2nccc(Nc3ccc(OCC(=O)O)cc3)n2)cc(OC)c1OC | 159 |
| O=C(NS(=O)(=O)c1ccc(Cl)cc1)N1C(=O)C(c2ccccc2)N1C(c1ccccc1)c1ccccc1 (stereo not drawn) | 162 to 163 |
| CCOC(=O)c1c(CN2CCOCC2)nc2cc3c(cc2c1-c1ccc(OC)c(OC)c1)OCCO3 | 174 to 175 |
